Where a SMILES comes first, the peptide text is derived from it. [ ]: non-standard residue; d: D form. MeBmt = C/C=C/C[C@@H](C)[C@@H](O)[C@H](NC)C(=O)O; NMeY = CN[C@@H](Cc1ccc(O)cc1)C(=O)O; NMeF = CN[C@@H](Cc1ccccc1)C(=O)O; NMeT = CN[C@H](C(=O)O)[C@@H](C)O; NMeL = CN[C@@H](CC(C)C)C(=O)O; NMeV = CN[C@H](C(=O)O)C(C)C; dNMeA = CN[C@H](C)C(=O)O; Abu = CC[C@H](N)C(=O)O; Sar = CNCC(=O)O
Molecular target: T1, Cyclophilin A (Homo sapiens, UniProt P62937)
T1 construct: made in house
Assay: AlphaLISA inhibition of binding of biotinylated Cyclosporin A to FLAG tagged Cyclophilin A
Settings: for % signal: AlphaLISA signal; for % signal / % inhibition of CsA binding to Cyclophilin A: test concentration not given; for IC50: read-out: IC50 value of CsA binding to Cyclophilin A
Procedure, shortened: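 Inhibition of biotin-CsA binding to FLAG-tagged Cyclophilin A read by AlphaLISA (ex 680, em 615 nm). Working stocks were 6 nM biotinylated CsA and 25 nM FLAG-CypA; beads and compound were combined first for 30 min, then protein added for 60 min, all at room temperature in the dark, with DMSO and cyclosporin A controls.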

T1 sequence (P62937 whole entry, species assumed): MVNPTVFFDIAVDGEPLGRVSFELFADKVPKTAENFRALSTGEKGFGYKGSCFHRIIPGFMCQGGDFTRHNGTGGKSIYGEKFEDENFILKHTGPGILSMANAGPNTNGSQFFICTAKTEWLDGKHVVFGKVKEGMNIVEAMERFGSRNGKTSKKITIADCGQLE

Row | Structure (SMILES) | % signal [%] | IC50 [nM] | % inhibition of CsA binding to Cyclophilin A [%]
1 | C/C=C/C[C@@H](C)[C@@H](O)[C@H]1C(=O)N[C@@H](CC)C(=O)N(C)CC(=O)N(C)CC(=O)N[C@@H](C(C)C)C(=O)N(C)[C@@H](CC(C)C)C(=O)N[C@@H](CC)C(=O)N[C@H](C)C(=O)N(C)[C@@H](CC(C)C)C(=O)N(C)[C@@H](CC(C)C)C(=O)N(C)[C@@H](C(C)C)C(=O)N1C [Compound C97] (cyclo([Abu][Sar][Sar]V[NMeL][Abu][dA][NMeL][NMeL][NMeV][MeBmt])) | 6.42 | < 2000 | 93.58
2 | C/C=C/C[C@@H](C)[C@@H](O)[C@H]1C(=O)N[C@@H](CC)C(=O)N(C)CC(=O)N(C)[C@@H](CC(C)C)C(=O)N[C@@H](C(C)C)C(=O)N(C)[C@@H](CC(C)C)C(=O)N[C@@H](CC)C(=O)N[C@H](C)C(=O)N(C)[C@@H](CC(C)C)C(=O)N(C)[C@@H](CC(C)C)C(=O)N(C)[C@@H](C(C)C)C(=O)N1C [Compound C98] | 4.70 | < 2000 | 95.30
3 | C/C=C/C[C@@H](C)[C@@H](O)[C@H]1C(=O)N[C@@H](CC)C(=O)N(C)CC(=O)N(C)[C@@H]([C@@H](C)O)C(=O)N[C@@H](C(C)C)C(=O)N(C)[C@@H](CC(C)C)C(=O)N[C@@H](CC)C(=O)N[C@H](C)C(=O)N(C)[C@@H](CC(C)C)C(=O)N(C)[C@@H](CC(C)C)C(=O)N(C)[C@@H](C(C)C)C(=O)N1C [Compound C99] (cyclo([Abu][Sar][NMeT]V[NMeL][Abu][dA][NMeL][NMeL][NMeV][MeBmt])) | 2.59 | < 2000 | 97.41
4 | C/C=C/C[C@@H](C)[C@@H](O)[C@H]1C(=O)N[C@@H](CC)C(=O)N(C)CC(=O)N(C)[C@@H](Cc2ccc(O)cc2)C(=O)N[C@@H](C(C)C)C(=O)N(C)[C@@H](CC(C)C)C(=O)N[C@@H](CC)C(=O)N[C@H](C)C(=O)N(C)[C@@H](CC(C)C)C(=O)N(C)[C@@H](CC(C)C)C(=O)N(C)[C@@H](C(C)C)C(=O)N1C [Compound C100] (cyclo([Abu][Sar][NMeY]V[NMeL][Abu][dA][NMeL][NMeL][NMeV][MeBmt])) | 4.28 | < 2000 | 
5 | C/C=C/C[C@@H](C)[C@@H](O)[C@H]1C(=O)N[C@@H](CC)C(=O)N(C)CC(=O)N(C)[C@@H](C(C)C)C(=O)N[C@@H](C(C)C)C(=O)N(C)[C@@H](CC(C)C)C(=O)N[C@@H](CC)C(=O)N[C@H](C)C(=O)N(C)[C@@H](CC(C)C)C(=O)N(C)[C@@H](CC(C)C)C(=O)N(C)[C@@H](C(C)C)C(=O)N1C [Compound C101] (cyclo([Abu][Sar][NMeV]V[NMeL][Abu][dA][NMeL][NMeL][NMeV][MeBmt])) | 0.15 | < 2000 | 99.85

The remaining lines, values ahead:

Row | % signal [%] | IC50 [nM] | % inhibition of CsA binding to Cyclophilin A [%] | Structure (SMILES)
6 | 6.90 | < 2000 | 93.10 | C/C=C/C[C@@H](C)[C@@H](O)[C@H]1C(=O)N[C@@H](CC)C(=O)N(C)CC(=O)N(C)[C@H](C)C(=O)N[C@@H](C(C)C)C(=O)N(C)[C@@H](CC(C)C)C(=O)N[C@@H](CC)C(=O)N[C@H](C)C(=O)N(C)[C@@H](CC(C)C)C(=O)N(C)[C@@H](CC(C)C)C(=O)N(C)[C@@H](C(C)C)C(=O)N1C [Compound C95] (cyclo([Abu][Sar][dNMeA]V[NMeL][Abu][dA][NMeL][NMeL][NMeV][MeBmt]))
7 | 5.00 | < 2000 | 95.00 | C/C=C/C[C@@H](C)[C@@H](O)[C@H]1C(=O)N[C@@H](CC)C(=O)N(C)CC(=O)N(C)[C@@H](Cc2ccccc2)C(=O)N[C@@H](C(C)C)C(=O)N(C)[C@@H](CC(C)C)C(=O)N[C@@H](CC)C(=O)N[C@H](C)C(=O)N(C)[C@@H](CC(C)C)C(=O)N(C)[C@@H](CC(C)C)C(=O)N(C)[C@@H](C(C)C)C(=O)N1C [Compound C96] (cyclo([Abu][Sar][NMeF]V[NMeL][Abu][dA][NMeL][NMeL][NMeV][MeBmt]))

Reference: patent publication US20200199102A1, “COMPOUNDS THAT PARTICIPATE IN COOPERATIVE BINDING AND USES THEREOF” (Revolution Medicines, Inc., priority 2017, published 2020)
